No end group written: not given here.
Tests used:
[1] = tested on: rabbit conjunctival fibroblasts; assay: Conjunctival fibroblast proliferation, tritiated thymidine assay; assay type: cell-based; details: for Thymidine uptake: day 4, no drug control 8537 cpm
From the text: The failure of gluacoma treatment by filtration surgery is most often caused by scarring. Scarring requires fibroblast proliferation and fibrosis of the subconjunctive space. Proliferation of rabbit conjunctival fibroblasts was studied using the tritiated thymidine assay, which serves as an in vitro model of fibroblast proliferation in the rabbit eye (see Invest. Ophthalmol. Vis. Sci., 31, 1848-1855 (1990)). The ability of synthetic polypeptides derived from ECM molecules to inhibit conjuntival fibroblast proliferation was examined in this model.
Rabbit conjunctival fibroblasts were plated into 96-well microtiter plates at 1000 cells/well in 200 microliters of standard fibroblast culture media. Standard fibroblast culture media include Eagle's minimal essential medium containing 15% fetal bovine serum, penicillin G 100 IU/ml, streptomycin 100 μg/ml, and amphotericin B 0.25 μg/ml. Hep-II was added to the wells in concentrations ranging from 1 μg/ml to 1000 μg/ml after removing an equal volume of media to maintain 200 microliters/well. The peptide was used in concentrations of 1, 3, 7, 10, 25, 50, 100, 200, 300, 400, 500, 600, 800 and 1000 microgram/ml (experiments 1-14, respectively in FIG. 26). The tissue culture plates were incubated at 37° C. in a humidified atmosphere of 5% carbon dioxide. Two separate sets experiments were conducted. Each set of experiments was done in replicates of four. In the first set of experiments, tritiated thymidine was added 22 hours prior to each harvesting on days 4, 5, and 8. In the second set of experiments, tritiated thymidine was added 22 hours prior to each harvesting on days 4, 5, and 6. Wells with vehicle but no test compound served as negative controls (experiment #15) and cells with mitomycin-C at 100 μg/ml served as positive controls (experiment #16).

[2] = tested on: filtration surgery in rabbits; assay: Rabbit model of glaucoma filtration surgery failure; assay type: in vivo; design: IOP: unit not given here
Protocol: The rabbit model for filtration surgery is described by Bergstrom TJ, and Skuta GL. et al. in Arch. Ophthalmol, 109(12):1725-30, 1991. Two New Zealand white albino rabbits were used in the study. All animals were treated according to ARVO Animal Use Guidelines. All eyes were examined prior to initiation of a study and only clinically normal animals were used.
All the rabbits underwent preoperative examination and the intraocular pressure (IOP) was measured by pneumatonometry (PneumaTonometer, Digilab Model 30R, Cambridge, Mass.). The rabbits were anesthetized using an intramuscular injection of a mix of ketamine (30 mg/kg) and xylazine (5 mg/kg). A posterior lip sclerectomy was then performed on both eyes of each animal during the same period of anesthesia. […] The superotemporal conjuctiva and Tenon's capsule was incised near the fornix, and the dissection was performed anteriorly to the limbus. The anterior chamber was entered at the filtration site and a 1-mm by 3-mm block of limbal scleral tissue was excised from the posterior lip of the wound with the Kelly-Descemet punch. A peripheral iridectomy was then performed with Vannas scissors and curved jeweler's forceps. Hand-held thermal cautery was used as needed to provide hemostasis. The conjunctiva was closed with a running 10-0 nylon suture. The right eye received subconjunctival injection of the Hep-II dissolved in 0.15 ml distilled water at the end of the filtration surgery and the left eye, which served as the control, received an equal volume of distilled water. These and each of the subsequent injections were made into the area of the bleb. No prophylactic antibiotics, cycloplegic, or corticosteroid was applied to either eye intraoperatively or postoperatively. Postoperative evaluation included examination with a portable slit-lamp biomicroscope, evaluation of the filtering bleb and intraocular pressure measurements obtained with a pneumatonometer. At the end of the study the animals were sacrificed while under anesthesia with an intravenous injection of 1 cc of euthanasia solution.
The results of filtration surgery were evaluated by monitoring intraocular pressures and visual inspection of scarring and vascularization. The ability of ability of a synthetic polypeptide to prolong the effect of glaucoma treatment by filtration surgery was examined using the rabbit model. The right eye was treated with subconjunctival injection of 1 milligram of Hep-II dissolved in 0.15 ml of distilled water at the end of filtration surgery and every other day for a total of eight injections. The left eye served as the control and received an equal volume of distilled water on those days. The intraocular pressures (IOP) were checked using a pneumatonometer every day until day 9 and roughly every other day until day 28 (Table V and FIG. 27). […] Control eyes reached pre-operative pressures between about day 4 and day 9.

In the case of “LAGSCLARFSTM [Hep-II, Leu-Ala-Gly-Ser-Cys-Leu-Ala-Arg-Phe-Ser-Thr-Met]”, the Thymidine uptake ([1]; 800 microgram/ml) was 580 cpm, the Thymidine uptake ([1]; 1000 microgram/ml) was 589 cpm and the “Concentration effective in controlling fibroblast proliferation in vitro” value ([1]; similar to mitomycin-C) was 800-1000 microgram/ml. The “IOP in treated eyes versus control eyes” value ([2]; 1 milligram subconjunctival every other day, eight injections, 28 days, p<0.001) was “lower than the control eyes”, the IOP ([2]; Rabbit #3 OD (1 milligram Hep-II subconjunctival, eight injections), Post op #1, Pre op 32, control OS 22) was 24 and the IOP ([2]; Rabbit #3 OD (1 milligram Hep-II subconjunctival, eight injections), Post op #2, Pre op 32, control OS 31) was 30. For the same sequence, the IOP ([2]; Rabbit #3 OD (1 milligram Hep-II subconjunctival, eight injections), Post op #3, Pre op 32, control OS 30) was 25, the IOP ([2]; Rabbit #3 OD (1 milligram Hep-II subconjunctival, eight injections), Post op #4, Pre op 32, control OS 32) was 23 and the IOP ([2]; Rabbit #3 OD (1 milligram Hep-II subconjunctival, eight injections), Post op #5, Pre op 32, control OS 32) was 22. For the same sequence, the IOP ([2]; Rabbit #3 OD (1 milligram Hep-II subconjunctival, eight injections), Post op #6, Pre op 32, control OS 32) was 21, the IOP ([2]; Rabbit #3 OD (1 milligram Hep-II subconjunctival, eight injections), Post op #7, Pre op 32, control OS 30) was 21 and the IOP ([2]; Rabbit #3 OD (1 milligram Hep-II subconjunctival, eight injections), Post op #8, Pre op 32, control OS 31) was 24. It also gave an IOP ([2]; Rabbit #3 OD (1 milligram Hep-II subconjunctival, eight injections), Post op #9, Pre op 32, control OS 30) of 22, an IOP ([2]; Rabbit #3 OD (1 milligram Hep-II subconjunctival, eight injections), Post op #13, Pre op 32, control OS 30) of 24 and an IOP ([2]; Rabbit #3 OD (1 milligram Hep-II subconjunctival, eight injections), Post op #14, Pre op 32, control OS 28) of 18. It also gave an IOP ([2]; Rabbit #3 OD (1 milligram Hep-II subconjunctival, eight injections), Post op #15, Pre op 32, control OS 33) of 25, an IOP ([2]; Rabbit #3 OD (1 milligram Hep-II subconjunctival, eight injections), Post op #16, Pre op 32, control OS 35) of 27 and an IOP ([2]; Rabbit #3 OD (1 milligram Hep-II subconjunctival, eight injections), Post op #18, Pre op 32, control OS 34) of 26. It also gave an IOP ([2]; Rabbit #3 OD (1 milligram Hep-II subconjunctival, eight injections), Post op #20, Pre op 32, control OS 32) of 25, an IOP ([2]; Rabbit #3 OD (1 milligram Hep-II subconjunctival, eight injections), Post op #21, Pre op 32, control OS 32) of 28 and an IOP ([2]; Rabbit #3 OD (1 milligram Hep-II subconjunctival, eight injections), Post op #24, Pre op 32, control OS 32) of 26. It also gave an IOP ([2]; Rabbit #3 OD (1 milligram Hep-II subconjunctival, eight injections), Post op #27, Pre op 32, control OS 34) of 33, an IOP ([2]; Rabbit #3 OD (1 milligram Hep-II subconjunctival, eight injections), Post op #28, Pre op 32, control OS 35) of 33 and an IOP ([2]; Rabbit #4 OD (1 milligram Hep-II subconjunctival, eight injections), Post op #1, Pre op 34, control OS 25) of 24. For the same sequence, the IOP ([2]; Rabbit #4 OD (1 milligram Hep-II subconjunctival, eight injections), Post op #2, Pre op 34, control OS 25) was 30, the IOP ([2]; Rabbit #4 OD (1 milligram Hep-II subconjunctival, eight injections), Post op #3, Pre op 34, control OS 20) was 22 and the IOP ([2]; Rabbit #4 OD (1 milligram Hep-II subconjunctival, eight injections), Post op #4, Pre op 34, control OS 25) was 22. The IOP ([2]; Rabbit #4 OD (1 milligram Hep-II subconjunctival, eight injections), Post op #5, Pre op 34, control OS 30) was 24, the IOP ([2]; Rabbit #4 OD (1 milligram Hep-II subconjunctival, eight injections), Post op #6, Pre op 34, control OS 31) was 23 and the IOP ([2]; Rabbit #4 OD (1 milligram Hep-II subconjunctival, eight injections), Post op #7, Pre op 34, control OS 30) was 23. The IOP ([2]; Rabbit #4 OD (1 milligram Hep-II subconjunctival, eight injections), Post op #8, Pre op 34, control OS 32) was 25, the IOP ([2]; Rabbit #4 OD (1 milligram Hep-II subconjunctival, eight injections), Post op #9, Pre op 34, control OS 37) was 26 and the IOP ([2]; Rabbit #4 OD (1 milligram Hep-II subconjunctival, eight injections), Post op #13, Pre op 34, control OS 32) was 27. It also gave an IOP ([2]; Rabbit #4 OD (1 milligram Hep-II subconjunctival, eight injections), Post op #14, Pre op 34, control OS 27) of 20, an IOP ([2]; Rabbit #4 OD (1 milligram Hep-II subconjunctival, eight injections), Post op #15, Pre op 34, control OS 35) of 25 and an IOP ([2]; Rabbit #4 OD (1 milligram Hep-II subconjunctival, eight injections), Post op #16, Pre op 34, control OS 37) of 28. For the same sequence, the IOP ([2]; Rabbit #4 OD (1 milligram Hep-II subconjunctival, eight injections), Post op #18, Pre op 34, control OS 35) was 27, the IOP ([2]; Rabbit #4 OD (1 milligram Hep-II subconjunctival, eight injections), Post op #20, Pre op 34, control OS 34) was 27 and the IOP ([2]; Rabbit #4 OD (1 milligram Hep-II subconjunctival, eight injections), Post op #21, Pre op 34, control OS 40) was 32. It also gave an IOP ([2]; Rabbit #4 OD (1 milligram Hep-II subconjunctival, eight injections), Post op #24, Pre op 34, control OS 34) of 28, an IOP ([2]; Rabbit #4 OD (1 milligram Hep-II subconjunctival, eight injections), Post op #27, Pre op 34, control OS 36) of 33 and an IOP ([2]; Rabbit #4 OD (1 milligram Hep-II subconjunctival, eight injections), Post op #28, Pre op 34, control OS 36) of 35. For the same sequence, the “Effect on duration of filtration surgery effect” value ([2]; rabbits in vivo) was “prolongs the effect of filtration surgery” and the “Day until which blebs remained avascular (appeared functional)” value ([2]; treated eyes, control eyes until day 10) was 18 days.

From US6013628A, “Method for treating conditions of the eye using polypeptides” (Regents of the University of Minnesota, priority 1995, dated 2000)
